Assay results taken from patent publication US20230000865A1, “PHARMACEUTICAL COMPOSITION FOR THE TREATMENT OF PULMONARY VASCULAR DISEASE AND/OR CARDIAC DYSFUNCTION IN FONTAN-PALLIATED PATIENTS” (ACTELION PHARMACEUTICALS LTD, priority 2019, published 2023).
One block for each compound: values may come before it.

Tests used:
[1] = patients with PAH; cited from earlier work
[2] = long-term treatment, patient with plastic bronchitis following Fontan; cited from earlier work
ET receptors = conditions: cited from earlier work
human PXR = molecular target: T1, human PXR (Homo sapiens, UniProt O75469); experiment: Activation of human PXR; assay type: cell-based
T1 sequence (O75469 1-434): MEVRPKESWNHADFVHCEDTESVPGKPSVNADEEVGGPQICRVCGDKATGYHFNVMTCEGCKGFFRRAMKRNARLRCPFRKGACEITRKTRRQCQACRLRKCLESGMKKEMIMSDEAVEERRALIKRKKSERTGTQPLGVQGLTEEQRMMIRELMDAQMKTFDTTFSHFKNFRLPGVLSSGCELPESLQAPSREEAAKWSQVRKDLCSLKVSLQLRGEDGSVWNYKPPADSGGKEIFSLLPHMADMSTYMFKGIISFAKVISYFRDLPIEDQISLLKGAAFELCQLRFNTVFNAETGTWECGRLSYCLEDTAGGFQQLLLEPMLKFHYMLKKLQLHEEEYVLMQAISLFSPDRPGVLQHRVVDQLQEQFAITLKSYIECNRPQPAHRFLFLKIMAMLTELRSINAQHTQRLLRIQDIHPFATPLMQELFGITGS
Text: In human hepatocytes, both compounds elicited concentration-dependent increases in CYP3A4 mRNA and enzyme activity.

[3] = cited from earlier work
BCRP transporters = molecular target: T2, BCRP transporters (Homo sapiens, UniProt Q9UNQ0); experiment: Drug-drug interaction, pharmacokinetics of rosuvastatin; assay type: in vivo; conditions: for Drug-Drug Interaction observed: in vivo
T2 construct: from tissue; host or cells: in vivo: gut, liver canalicular membrane, kidney
T2 sequence (Q9UNQ0 1-655): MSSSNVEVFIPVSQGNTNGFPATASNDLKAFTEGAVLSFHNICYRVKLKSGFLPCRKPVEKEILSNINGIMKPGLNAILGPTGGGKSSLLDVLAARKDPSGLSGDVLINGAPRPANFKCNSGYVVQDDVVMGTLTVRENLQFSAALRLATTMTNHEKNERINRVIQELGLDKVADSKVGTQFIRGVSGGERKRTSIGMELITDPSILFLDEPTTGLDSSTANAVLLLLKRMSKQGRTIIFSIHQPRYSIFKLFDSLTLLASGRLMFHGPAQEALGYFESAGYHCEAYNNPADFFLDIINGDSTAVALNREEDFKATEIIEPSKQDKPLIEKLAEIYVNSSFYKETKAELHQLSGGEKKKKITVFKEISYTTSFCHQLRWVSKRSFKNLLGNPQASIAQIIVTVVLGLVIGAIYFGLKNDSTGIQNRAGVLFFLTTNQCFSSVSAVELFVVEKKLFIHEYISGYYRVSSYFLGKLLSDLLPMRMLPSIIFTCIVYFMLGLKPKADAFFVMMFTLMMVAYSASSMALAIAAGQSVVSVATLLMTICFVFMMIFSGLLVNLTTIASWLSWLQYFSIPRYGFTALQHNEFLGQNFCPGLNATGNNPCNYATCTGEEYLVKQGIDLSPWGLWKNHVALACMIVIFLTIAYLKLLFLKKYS
Text: BCRP is an efflux pump located in the gut, liver canalicular membrane, and kidney, and is exposed to intracellular drug concentrations in the liver and the kidney.

[4] = preoperative Fontan candidates with mild pulmonary hypertension; cited from earlier work
[5] = parameters: key to Frequency observed with macitentan 10 mg: Photophobia: Very common: very common (≥1/10); Common: common (≥1/100 to <1/10); Uncommon: uncommon (≥1/1,000 to <1/100); rare (≥1/10,000 to <1/1,000); very rare (<1/10,000); Not known: not known (cannot be estimated from the available data); conditions: cited from earlier work
[6] = Example 2: Phase 1 safety study of 75 mg qd macitentan in healthy male subjects, with and without up-titration; assay type: in vivo, human
Procedure: This is a single-sequence, open-label, single-center, Phase 1 study in healthy male subjects. The study assessed the effect of 75 mg qd administration of macitentan. The study includes a screening phase of 21 days before the first macitentan administration, followed by an open-label treatment phase. Randomization was not used and subjects received the same treatment.
29 subjects were enrolled.
Administration of 75 mg qd macitentan started on Day 1. Macitentan was administered every day in the morning between 8:00 and 11:00 with 240 mL of noncarbonated water. One 75-mg macitentan film-coated tablet was thus administered as multiple qd oral doses under fed conditions.
Subjects were planned to take macitentan 75 mg for 15 days. However the study was interrupted on the morning of day 8, i.e. when subjects had received 7 doses of macitentan 75 mg.
Macitentan was administered in an up-titration regimen in the morning between 8:00 and 11:00 with 240 mL of noncarbonated water. One macitentan film-coated tablet (10 mg, 37.5 mg or 75 mg) was administered as multiple qd oral doses under fed conditions on Days 1-9 and Days 11-12, and under fasted conditions on Days 10 and 13. The up-titration regimen consists of 2 qd doses of 10 mg macitentan and 3 qd doses of 37.5 mg macitentan followed by 8 qd doses of 75 mg macitentan. On Days −4, −3, 10 and 13 (i.e., the days when dosing occurred under fasted conditions), no fluid intake apart from the water taken at the time of macitentan administration was allowed from 1 hour before until 1 hour after administration of macitentan.
All reported AEs with onset during the treatment phase were included in the analysis. The effects on cardiovascular variables were evaluated and the following variables were collected: PR (ms), QRS (ms), QT (ms), QTcB (ms), QTcF (ms), heart rate (bpm), and RR. The normal range for vital signs is defined as follows: • Systolic blood pressure: 100-140 mmHg • Diastolic blood pressure: 60-90 mmHg • Pulse rate: 45-90 bpm • Respiratory rate: 8-20 per minute • Body temperature: 35.0° C. to 37.5° C.
An AE is any untoward medical occurrence, i.e., any unfavorable and unintended sign (including an abnormal finding), symptom, or disease temporally associated with the use of macitentan. A treatment-emergent AE is any occurrence that is new in onset or aggravated in severity from the baseline condition. The following are used to assess all AEs: • Related: There is a reasonable causal relationship between macitentan administration and the AE. • Not Related: There is not a reasonable causal relationship between macitentan administration and the AE.
An assessment of AE severity grade was made using the following general categorical descriptors: • Mild: Awareness of symptoms that are easily tolerated, causing minimal discomfort and not interfering with everyday activities. • Moderate: Sufficient discomfort is present to cause interference with normal activity. • Severe: Extreme distress, causing significant impairment of functioning or incapacitation. Prevents normal everyday activities.

[7] = Example 1: dose-response (Emax) analysis of hemoglobin change, pooled Phase I studies in healthy volunteers; assay type: in vivo, human
Text: Hemoglobin measurements were pooled from 3 Phase I clinical studies in healthy volunteers: • Study AC-055-102: Investigation of the PK, PD, safety and tolerability of macitentan in male subjects (the study protocol is described in the following publication: Sidharta et al., Safety, tolerability, pharmacokinetics, and pharmacodynamics of macitentan, an endothelin receptor antagonist, in an ascending multiple-dose study in healthy subjects. J. Clin. Pharmacol. (2013), 53(11), 1131-1138) • Study AC-055-116: Investigation of the PK, PD, safety and tolerability of macitentan in male Japanese subjects (the study protocol is described in the following publication: Yokoyama et al., Tolerability, Safety, Pharmacokinetics, and Pharmacodynamics of Macitentan, a New Endothelin Receptor Antagonist, in Healthy Japanese Male Subjects. Rinsho yakuri/Japanese Journal of Clinical Pharmacology and Therapeutics (2016), 47, 143-150) • Study AC-055-117: Investigation of the PK, PD, safety and tolerability of macitentan in male Korean subjects (the study protocol is described in the following publication: Ahn et al., Pharmacokinetic-pharmacodynamic relationships of macitentan, a new endothelin receptor antagonist, after multiple dosing in healthy Korean subjects, Am. […]
Hemoglobin concentrations measured in the morning of Day 11 of macitentan treatment and at baseline on Day −1 were used in the analysis. […]

[8] = early postoperative phase; cited from earlier work
[9] = 75 mg qd without up-titration, 6 subjects
[10] = 75 mg qd, healthy male subjects
[11] = up-titration 10/37.5/75 mg qd, 6 subjects

Compound: COc1ccccc1Oc1c(NS(=O)(=O)c2ccc(C(C)(C)C)cc2)nc(-c2ncccn2)nc1OCCO [bosentan]
exercise capacity, functional class, health-related quality of life and haemodynamic parameters (including PVR and PAP) [1]: improve
symptoms, aortic oxygen saturation, functional class, exercise capacity, Borg dyspnoea index, mean PAP, pulmonary blood flow and PVR [2]: improved

EC50 (human PXR): 7.2 to 8.7 µM
Drug-Drug Interaction observed (BCRP transporters): No Drug-Drug Interaction
Compound: NS(=O)(=O)Nc1ncnc(OCCOc2ncc(Br)cn2)c1-c1ccc(Br)cc1 [ACT-132577]
affinity for the ET receptors compared with parent compound (ET receptors): lower affinity
half-life ([3]; in humans): approximately 48 hours
plasma concentrations compared with macitentan ([3]; in vivo): higher plasma concentrations than macitentan
time of peak plasma concentration after the first dose ([3]; metabolite after macitentan administration): about 30 hours

Compound: CC#CCC(C)[C@H](O)/C=C/[C@@H]1[C@H]2c3cccc(CCCC(=O)O)c3O[C@H]2C[C@H]1O (mixture of isomers) [beraprost]
effect on mean pulmonary artery pressure (PAP) and PVR [4]: reduces

EC50 (human PXR): 1.1 to 1.2 µM
maximum effect on hemoglobin decrease (Emax) ([7]; Day 11 vs baseline Day -1, nonlinear regression): around 1.23 g/dL
dose at which the effect on hemoglobin decrease plateaus ([7]; FIG. 1): 10 mg
Drug-Drug Interaction observed (BCRP transporters): No Drug-Drug Interaction
effect on the pharmacokinetics of 1 mg rosuvastatin (BCRP transporters; macitentan 10 mg per day o.d.): has not shown any effect
Compound: CCCNS(=O)(=O)Nc1ncnc(OCCOc2ncc(Br)cn2)c1-c1ccc(Br)cc1 [macitentan, propylsulfamic acid [5-(4-bromo-phenyl)-6-[2-(5-bromo-pyrimidin-2-yloxy)-ethoxy]-pyrimidin-4-yl]-amide]
Frequency observed with macitentan 10 mg: Flushing/feeling of warmth/redness of face and/or hands [5]: Uncommon (uncommon (≥1/1,000 to <1/100))
Frequency observed with macitentan 10 mg: Headache [5]: Very common (very common (≥1/10))
Frequency observed with macitentan 10 mg: Photophobia [5]: Not known
Frequency observed with macitentan 10 mg: Sinusitis/rhinitis/nasal congestion [5]: Common (common (≥1/100 to <1/10))
N with Flushing/feeling of warmth/redness of face and/or hands (No titration) [6, 9]: 4
N with Headache (No titration) [6, 9]: 6
N with Photophobia (No titration) [6, 9]: 3
N with Sinusitis/rhinitis/nasal congestion (No titration) [6, 9]: 5
Severity of AEs (No titration): Photophobia [6, 9]: All mild
Severity of AEs (No titration): Sinusitis/rhinitis/nasal congestion [6, 9]: All mild
overall severity of AEs [6, 10]: mainly mild
reduction in hemoglobin [6, 10]: ≤ 2 g/dL
study day from which AEs were reported [6, 10]: ≥ 2 days
vital signs, ECG and lab parameters [6, 10]: no clinically significant changes
resolution of AEs ([6]; Four days after stopping macitentan): most of the AEs resolved
Duration of AE (With titration): Sinusitis/rhinitis/nasal congestion [6, 11]: < 24 h
N with Flushing/feeling of warmth/redness of face and/or hands (With titration) [6, 11]: 0
N with Headache (With titration) [6, 11]: 6
N with Photophobia (With titration) [6, 11]: 0
N with Sinusitis/rhinitis/nasal congestion (With titration) [6, 11]: 1
Severity of AEs (With titration): Sinusitis/rhinitis/nasal congestion [6, 11]: Mild, less than
completion of treatment ([6]; up-titration regimen cohort): All subjects completed treatment
tolerability of 75 mg macitentan with up-titration regimen ([6]; up-titration vs no up-titration): improved tolerability
steady state is reached ([3]; in humans, day of administration): by the third day
half-life ([3]; in humans): about 16 hours
absorption into the plasma ([3]; in vivo): absorbed slowly

Compound: CCCCC[C@H](O)/C=C/[C@@H]1[C@H]2C/C(=C/CCCC(=O)O)O[C@H]2C[C@H]1O [epoprostenol]
rebound effect after inhaled nitric oxide (NO) cessation [8]: prevent the rebound effect
